Counter-ions that a name gives are not always drawn.
Assays:
[1] = Particle size distribution by laser light scattering (Malvern Mastersizer S); format: physicochemical; details: raloxifene hydrochloride used in Formulations 1-4; mean equivalent spherical diameter
From the text: All particle sizes herein refer to the mean equivalent spherical diameter measured by laser light scattering techniques. Thus, the notation “d(0.5) greater than about 35 μm” means that 50% of the particles by volume have a mean equivalent spherical diameter of more than about 35 μm, as measured by laser light scattering. The laser light scattering measurement instrument used to measure the particle size distributions in the Examples was a Malvern Mastersizer® S. The dissolution profile was generated by testing in either 900 mL or 2 L of a 0.1% aqueous polysorbate 80 solution, using paddle apparatus (USP Apparatus II) at 50 rpm at 37° C.

[2] = starch content increased from 5 to 20%; tablets made by double compression; cited from earlier work

Q: What does the source list for `O=C(c1ccc(OCCN2CCCCC2)cc1)c1c(-c2ccc(O)cc2)sc2cc(O)ccc12` [raloxifene hydrochloride]?
A: particle size d(0.5) [1]: 38.8 μm; particle size d(0.9) [1]: 90.4 μm

Q: For `O=C(O)c1ccccc1O` [salicylic acid], which “increase in rate of dissolution of salicylic acid from tablets” value [2] is on record?
A: The value was “three fold”.

— patent US8597666B2, “Compressed solid dosage form manufacturing process well-suited for use with drugs of low aqueous solubility and compressed solid dosage forms made thereby” (Teva Pharmaceutical Industries, Ltd., priority 2004, dated 2013)
